Test results published in US12678453B2, “Aerosolized formulations of HIV protease inhibitors for the treatment of airway reflux” (The Medical College of Wisconsin, Inc., priority 2020, dated 2026).
Entries after “also recorded” stand apart in the source; their conditions may differ.

Tested on: mouse model of laryngopharyngeal reflux (LPR)
Assay: in vivo mouse model of LPR (laryngeal wounding and pepsin instillation, H&E histology)
Conditions: for laryngeal histology (H&E) / pepsin-mediated laryngeal injury: pepsin pH7 group; for laryngeal histology (H&E): solvent (saline/PBS pH7) group
Excerpt: An in vivo mouse model of direct application of pepsin, to mimic laryngeal exposure during LPR, and treatment with select HIV protease inhibitors by either gavage (oral systemic delivery) or aerosolized delivery (inhaled local delivery) was used. […] Each group contained 3 mice. Six-week-old female Jackson A/J mice (Jackson Laboratory, Bar Harbor, ME), weighed one day after arrival, then weekly, on Mondays thereafter.
Avertin was the preferred anesthetic for the brief application time needed as it has a rapid induction, produces a short surgical anesthesia, and has a rapid recovery. […] For this experiment, isoflurane inhalation was used. The isoflurane, self-scavenging machine, was operated at 3% isoflurane with 2.5 liters of air per minute (LPM). The induction chamber was charged for 3-5 minutes prior to the mice being anesthetized. Mice were placed in the induction chamber for 3-5 minutes prior to any wounding or administrations. Anesthesia records were kept according to IACUC policy.
Animals secured by a copper wire attached to the board from which the mice were suspended by their upper teeth. This caused the lower jaw to fall open naturally, exposing the larynx and permitting visualization with a Zeiss microscope at 6× magnification. […] Under direct visualization, the subglottis, glottis, and supraglottis regions were superficially scratched interiorly from distal to proximal as the needle was pulled out gently, making a mild abrasion. This procedure was performed twice, with one week between woundings.
To examine the effect pepsin at acid and nonacid pH, animals were treated for 2 weeks with laryngeal instillation of pepsin (20 μL at 0.3 mg/ml, pH 7.0 or pH 4.0) at 24, 48, and 72 h post wounding procedure. During weeks 3 and 4, animals were treated with laryngeal instillation for 3 days per week. Mice were sacrificed and samples collected on Friday of the fourth week.
The twelve mice in the aerosol groups were condition in the nose-only exposure chamber (Intox) on three separate days by exposure to dry air for 10 min. Beginning the Monday (day 1) of the next week, aerosols and gavages were performed on the mice Monday through Friday (5 exposures). The aerosols and gavages continued Monday-Friday for three more weeks, with the final week consisting of 4 total exposure days, Monday-Thursday, (19 total) with the mice sacrificed and tissues harvested on Friday. Each mouse received two woundings and 12 solvent or pepsin administrations. Wounding and intratracheal administrations were concurrent with the aerosol and gavage treatments. The first wounding was performed on day 2, followed by solvent or pepsin administrations on days 3, 4, and 5. The second wounding was performed on day 8, followed by solvent or pepsin administrations on days 9, 10, and 11. In weeks 3 and 4, mice received solvent or pepsin administrations on days 16, 17, and 18 and days 23, 24, and 25. Day 26 was sacrifice and tissue harvest.
A 10 mL suspension of drug in ethanol was placed in the baffle, such that the concentration would remain constant at the equilibrium solubility. Droplets of ethanol containing dissolve drug were generated by an ultrasonic atomizer (nominal frequency 1.7 MHz) entrained by air at a flow rate of 0.5 LPM with a custom-built glass baffle (University of Minnesota, Department of Chemistry Glass Shop). The aerosol cloud was then passed through a cylindrical drying column containing an annular ring of charcoal. The ethanol is removed and the emanating dry aerosol particles of pure drug were then directed into the exposure chamber.
The mass deposited on the filters in a fixed collection time was measured gravimetrically, and with the collection time, allowed calculation of the total output rate (mg/min). The aerosol concentration (mass/volume of air) was calculated by dividing the total output rate by the air flow rate (0.5 LPM).

CC(C)CN(C[C@@H](O)[C@H](Cc1ccccc1)NC(=O)O[C@H]1CO[C@H]2OCC[C@H]21)S(=O)(=O)c1ccc(N)cc1 [darunavir, [(3a S,4R,6aR)-2,3,3a,4,5,6a-hexahydrofuro[2,3-b]furan-4-yl] N-[(2S,3R)-4-[(4-aminophenyl)sulfonyl-(2-methylpropyl)amino]-3-hydroxy-1-phenylbutan-2-yl]carbamate]
pepsin-mediated laryngeal injury (multi-layered, reactive epithelia and cell apoptosis) (aerosol, 12 mg/kg/d): effective in preventing pepsin mediated injury
laryngeal histology (H&E) / pepsin-mediated laryngeal injury (aerosol): normal histology; also recorded: mild protection against pepsin-mediated damage
laryngeal histology (H&E) (aerosol): normal histology
laryngeal histology (H&E) / pepsin-mediated laryngeal injury (gavage): appeared similar
laryngeal histology (H&E) / pepsin-mediated laryngeal injury (gavage, listed as Darunavir): mild reactive epithelia in the pepsin group but less than pepsin control
laryngeal histology (H&E) (gavage): mild reactive epithelia in the solvent group, but less than pepsin control; also recorded: mild reactivity (rare intraepithelial lymphocytes)
